Drawing on US6579868B1, “Purine derivatives and adenosine A2 receptor antagonists serving as preventives/remedies for diabetes” (Eisai Co., Ltd., priority 1998, dated 2003), this text covers melting point for 68 molecules.

Counter-ions that a name gives are not always drawn. A value given as a limit tells only on which side of the number the result lay.

In turn, `CCn1c(-c2cccc(F)c2)nc2c(N)nc(C#CC(C)(C)O)nc21.Cl` returned a melting point of 193 to 196 °C.

Turning to `Cl.Nc1nc(C#CC2(O)CCCC2)nc2c1nc(-c1cccc(F)c1)n2C1CC1`, the melting point was 220 to 223 °C.

For the molecule `Cl.Cn1c(-c2cc(F)ccc2F)nc2c(N)nc(C#CC3(O)CCC3)nc21`, the melting point fell in the range of 149 to 152 °C.

For the molecule `CCC(O)(C#Cc1nc(N)c2nc(-c3cc(F)cc(F)c3)n(C)c2n1)CC.Cl`, the melting point was 207 to 210 °C.

`CC(C)C(C)(O)C#Cc1nc(N)c2nc(-c3cccc(F)c3)n(C)c2n1.Cl` (centres unmarked) returned a melting point of 191 to 192 °C.

In the case of `Cl.Cn1c(-c2cccc(F)c2)nc2c(N)nc(C#CC(C)(O)C(C)(C)C)nc21` (centres unmarked), the melting point lay in the range of 193 to 194 °C.

Turning to `Cl.Cn1c(-c2cccc(F)c2)nc2c(N)nc(C#CC3(O)CCC(c4ccccc4)CC3)nc21` (centres unmarked), the melting point fell in the range of 247 to 249 °C.

The molecule `CCCn1c(-c2cccc(F)c2)nc2c(N)nc(C#CC(O)(CC)CC)nc21.Cl` returned a melting point of 144 to 147 °C.

Turning to `CCn1c(-c2cc(F)cc(F)c2)nc2c(N)nc(C#CC3(O)CCCC3)nc21.Cl`, the melting point lay in the range of 217 to 218 °C.

In the case of `CCn1c(-c2cc(F)cc(F)c2)nc2c(N)nc(C#CC(O)(CC)CC)nc21.Cl`, the melting point lay in the range of 204 to 205 °C.

On to `CCn1c(-c2cc(F)cc(F)c2)nc2c(N)nc(C#CC3(O)CCC3)nc21.Cl`, for which the melting point is 234 to 235 °C.

The molecule `CCn1c(-c2cc(F)cc(F)c2)nc2c(N)nc(C#CC(C)(C)O)nc21.Cl` came in with a melting point of 233 to 234 °C.

`Cl.Nc1nc(C#CC2(O)CCCC2)nc2c1nc(-c1cc(F)cc(F)c1)n2C1CC1` had a melting point of 265 to 266 °C.

`Cl.Nc1nc(C#CC2(O)CCC2)nc2c1nc(-c1cc(F)cc(F)c1)n2C1CC1` showed a melting point of 228 °C.

Regarding `CC(C)(O)C#Cc1nc(N)c2nc(-c3cc(F)cc(F)c3)n(C3CC3)c2n1.Cl`, the melting point is 245 °C.

With `CCC(O)(C#Cc1nc(N)c2nc(-c3cccc(F)c3)n(C3CC3)c2n1)CC.Cl`, the melting point fell in the range of 145 to 148 °C.

Turning to `CC(C)(O)C#Cc1nc(N)c2nc(-c3cccc(F)c3)n(C3CC3)c2n1.Cl`, the melting point is 143 to 145 °C.

`CCCn1c(-c2cc(F)cc(F)c2)nc2c(N)nc(C#CC(O)(CC)CC)nc21.Cl` returned a melting point of 183 to 184 °C.

Regarding `CCCn1c(-c2cc(F)cc(F)c2)nc2c(N)nc(C#CC3(O)CCCC3)nc21.Cl`, the melting point fell in the range of 210 to 211 °C.

With `CCC(O)(C#Cc1nc(N)c2nc(-c3ccc(C)o3)n(C)c2n1)CC.Cl`, the melting point was 229 to 230 °C.

Take `CCC(O)(C#Cc1nc(N)c2nc(-c3cc(F)cc(F)c3)n(C3CC3)c2n1)CC.Cl`: the melting point was found to be 225 °C.

`Cl.Cn1c(-c2cc(F)cc(F)c2)nc2c(N)nc(C#CC(C)(C)O)nc21` yielded a melting point of 237 to 238 °C.

Regarding `CCC(O)(C#Cc1nc(N)c2nc(-c3cc(F)ccc3F)n(C)c2n1)CC.Cl`, the melting point was 147 to 148 °C.

For the molecule `Cl.Cn1c(-c2cc(F)ccc2F)nc2c(N)nc(C#CC(C)(C)O)nc21`, the melting point is 177 to 178 °C.

`CCn1c(-c2cccc(F)c2F)nc2c(N)nc(C#CC(C)(C)O)nc21.Cl` yielded a melting point of 213 to 215 °C.

Consider `CCn1c(-c2cccc(F)c2F)nc2c(N)nc(C#CC(O)(CC)CC)nc21.Cl`, for which the melting point was in the range of 222 to 224 °C.

As to `CCn1c(-c2cccc(F)c2F)nc2c(N)nc(C#CC3(O)CCCC3)nc21.Cl`, the melting point is 138 to 140 °C.

In the case of `CCCn1c(-c2cc(F)cc(F)c2)nc2c(N)nc(C#CC(C)(C)O)nc21.Cl`, the melting point lay within 148 to 150 °C.

Consider `Cl.Nc1nc(C#CC2(O)CCC2)nc2c1nc(-c1cccc(F)c1)n2C1CC1`, for which the melting point lay in the range of 167 to 170 °C.

`CCCn1c(-c2cccc(F)c2F)nc2c(N)nc(C#CC3(O)CCC3)nc21.Cl` gave a melting point of 124 to 127 °C.

`CCCn1c(-c2cccc(F)c2F)nc2c(N)nc(C#CC3(O)CCCC3)nc21.Cl` returned a melting point of 184 to 188 °C.

On to `CCCn1c(-c2cccc(F)c2F)nc2c(N)nc(C#CC(C)(C)O)nc21.Cl`, for which the melting point lay within 230 to 233 °C.

`CCCn1c(-c2cccc(F)c2F)nc2c(N)nc(C#CC(O)(CC)CC)nc21.Cl`: the melting point is 187 to 188 °C.

The molecule `Cl.Nc1nc(C#CC2(O)CCC2)nc2c1nc(-c1cc(F)ccc1F)n2C1CC1` returned a melting point of 161 to 164 °C.

Turning to `Cl.Nc1nc(C#CC2(O)CCCC2)nc2c1nc(-c1cc(F)ccc1F)n2C1CC1`, the melting point is 230 to 232 °C.

`CC(C)(O)C#Cc1nc(N)c2nc(-c3cc(F)ccc3F)n(C3CC3)c2n1.Cl`: the melting point is 196 to 198 °C.

Molecule `CCC(O)(C#Cc1nc(N)c2nc(-c3cc(F)ccc3F)n(C3CC3)c2n1)CC.Cl` yielded a melting point of 215 to 216 °C.

The molecule `CCCn1c(-c2cc(F)ccc2F)nc2c(N)nc(C#CC3(O)CCCC3)nc21.Cl` had a melting point of 232 to 234 °C.

`CCCn1c(-c2cc(F)ccc2F)nc2c(N)nc(C#CC3(O)CCC3)nc21.Cl` registered a melting point of 225 to 226 °C.

`CCn1c(-c2cc(F)ccc2F)nc2c(N)nc(C#CC3(O)CCC3)nc21.Cl` had a melting point of 141 to 143 °C.

As for `CCn1c(-c2cc(F)ccc2F)nc2c(N)nc(C#CC3(O)CCCC3)nc21.Cl`, the melting point is 191 to 194 °C.

Molecule `CCn1c(-c2cc(F)ccc2F)nc2c(N)nc(C#CC(C)(C)O)nc21.Cl` registered a melting point of 215 to 218 °C.

`CCn1c(-c2cc(F)ccc2F)nc2c(N)nc(C#CC(O)(CC)CC)nc21.Cl` gave a melting point of 163 to 166 °C.

`CCCn1c(-c2cc(F)ccc2F)nc2c(N)nc(C#CC(C)(C)O)nc21.Cl` returned a melting point of 194 to 196 °C.

For the molecule `CCCn1c(-c2cc(F)ccc2F)nc2c(N)nc(C#CC(O)(CC)CC)nc21.Cl`, the melting point was in the range of 164 to 165 °C.

`Cl.Cn1c(-c2ccco2)nc2c(N)nc(C#CCCO)nc21`: the melting point fell in the range of 161 to 164 °C.

`CCn1c(-c2cccc(F)c2)nc2c(N)nc(/C=C/C3(O)CCC3)nc21.Cl` returned a melting point of 178 to 180 °C.

In the case of `CCCCC#Cc1nc(N)c2nc(-c3ccco3)n(C)c2n1.Cl`, the melting point was 178 to 181 °C.

Turning to `Cl.Cn1c(-c2cccc(F)c2)nc2c(N)nc(/C=C/C(C)(C)O)nc21`, the melting point is over 290 °C.

In turn, `Cl.Cn1c(-c2cccc(F)c2)nc2c(N)nc(/C=C/C3(O)CCCCC3)nc21` came in with a melting point of 222 to 225 °C.

`Cl.Cn1c(-c2ccco2)nc2c(N)nc(C#CC3(O)CCCC3)nc21` registered a melting point of 168 to 172 °C.

The molecule `Cl.Cn1c(-c2ccco2)nc2c(N)nc(C#CCCC3CCCCC3)nc21` registered a melting point of 165 to 169 °C.

As for `Cl.Cn1c(-c2ccco2)nc2c(N)nc(C#CC3CCCCC3)nc21`, the melting point is 155 to 160 °C.

Take `Cl.Nc1nc(C#CC2(O)CCCCC2)nc2c1nc(-c1cccc(F)c1)n2C1CCCC1`: the melting point lay within 196 to 200 °C.

`CC(C)C(O)C#Cc1nc(N)c2nc(-c3cccc(F)c3)n(C)c2n1.Cl` (centres unmarked) displayed a melting point of 170 to 173 °C.

Molecule `CCC(O)C#Cc1nc(N)c2nc(-c3cccc(F)c3)n(C)c2n1.Cl` (centres unmarked) had a melting point of 171 to 175 °C.

Consider `CCn1c(-c2cccc(F)c2)nc2c(N)nc(C#CC(O)(CC)CC)nc21.Cl`, for which the melting point fell in the range of 150 to 153 °C.

`Cl.Cn1c(-c2cc(F)cc(F)c2)nc2c(N)nc(C#CC3(O)CCCC3)nc21` registered a melting point of 255 to 258 °C.

For the molecule `CN(C)c1ccc(-n2c(-c3cccc(F)c3)nc3c(N)nc(C#CC4(O)CCCCC4)nc32)cc1` (as salt: hydrochloride) [Example 3, 1-{2-[6-Amino-9-[4-(dimetylamino)phenyl]-8-(3-fluorophenyl)-9H-2-purinyl]-1-ethynyl}-1-cyclohexanol Dihydrochloride], the melting point is 255 to 260 °C.

As to `CC(O)C#Cc1nc(N)c2nc(-c3ccco3)n(C)c2n1` (centres unmarked) [Example 23, 4-[6-Amino-8-(2-furyl)-9-methyl-9H-2-purinyl]-3-butyn-2-ol], the melting point was 155 to 158 °C.

`COC1CCCCC1(O)C#Cc1nc(N)c2nc(-c3cccc(F)c3)n(C)c2n1` (centres unmarked) [Example 120, 1-{2-[6-Amino-8-(3-fluorophenyl)-9-methyl-9H-2-purinyl}-1-ethynyl}-2-methoxy-1-cyclohexanol]: the melting point lay within 281 to 283 °C.

The molecule `COC1CCCCC1(O)C#Cc1nc(N)c2nc(-c3cccc(F)c3)n(C)c2n1` (centres unmarked) [Example 121, 1-{2-[6-Amino-8-(3-fluorophenyl)-9-methyl-9H-2-purinyl]-1-ethynyl}-2-methoxy-1-cyclohexanol] came in with a melting point of 195 to 197 °C.

Molecule `Cn1c(-c2cccc(F)c2)nc2c(N)nc(C#CC3(O)C=CCC3)nc21` (centres unmarked) [Example 122, 1-{2-[6-Amino-8-(3-fluorophenyl)-9-methyl-9H-2-purinyl]-1-ethynyl}-2-cyclopenten-1-ol] yielded a melting point of 191 to 193 °C.

Molecule `Cn1c(-c2cc(F)cc(F)c2F)nc2c(N)nc(C#CC3(O)CCCC3)nc21` [Example 125, 1-{2-[6-Amino-9-methyl-8-(2,3,5-trifluorophenyl)-9H-2-purinyl]-1-ethynyl}-1-cyclopentanol] had a melting point of 214 to 217 °C.

Take `Cn1c(-c2cc(F)cc(F)c2F)nc2c(N)nc(C#CC3(O)CCC3)nc21` [Example 126, 1-{2-[6-Amino-9-methyl-8-(2,3,5-trifluorophenyl)-9H-2-purinyl]-1-ethynyl}-1-cyclobutanol]: the melting point lay in the range of 231 to 234 °C.

The molecule `Cn1c(-c2cccc(F)c2F)nc2c(N)nc(C#CC3(O)CCC3)nc21` [Example 127, 1-{2-[6-Amino-8-(2,3-difluorophenyl)-9-methyl-9H-2-purinyl]-1-ethynyl}-1-cyclobutanol] had a melting point of 225 to 229 °C.

`Cn1c(-c2ccccc2F)nc2c(N)nc(C#CC3(O)CCC3)nc21` [Example 146, 1-{2-[6-Amino-8-(2-fluorophenyl)-9-methyl-9H-2-purinyl]-1-ethynyl}-1-cyclobutanol] displayed a melting point of 136 to 138 °C.

`Cn1c(-c2ccccc2F)nc2c(N)nc(C#CC3(O)CCCC3)nc21` [Example 147, 1-{2-[6-Amino-8-(2-fluorophenyl)-9-methyl-9H-2-purinyl]-1-ethynyl}-1-cyclopentanol] came in with a melting point of 166 to 168 °C.
